Like-named read-outs stand apart in the source and are kept apart here.
Key:
[1] = tested on: UACC-257; experiment: NCI-60 anticancer screen (SRB; single dose and five doses); conditions: Homo sapiens; for activity at 10 µM: UACC-257, 48 h, read-out: Growth Percentage
[2] = tested on: PC-3; experiment: as above; conditions: Homo sapiens; for activity at 10 µM: PC-3, 48 h, read-out: Growth Percentage
[3] = tested on: ACHN; experiment: as above; conditions: Homo sapiens; for activity at 10 µM: 48 h, read-out: Growth Percentage
[4] = tested on: 60 human tumor cell lines panel; experiment: NCI-60 anticancer screen, whole panel (means and ranges over the cell lines); format: cell-based; conditions: for activity at 10 µM: Homo sapiens, 48 h
[5] = tested on: MDA-MB-468; experiment: NCI-60 anticancer screen (SRB; single dose and five doses); format: cell-based, human; conditions: for activity at 10 µM: 48 h, MDA-MB-468, dose of 10 μM, read-out: Growth Percentage
Method: The methodology of the NCI anticancer screening has been described in detail elsewhere (http://www.dtp.nci.nih.gov). For detailed information, see Appendix A in the Supplementary Materials.
4.2.1. Screening of the anticancer activity against a panel of 60 cell Lines.
The methodology of the NCI anticancer screening has been described in detail elsewhere (http://www.dtp.nci.nih.gov.) Briefly, the primary anticancer assay was performed at approximately 60 human tumor cell lines panel derived from nine neoplastic diseases, in accordance with the protocol of the Drug Evaluation Branch, National Cancer Institute, Bethesda. Tested compounds were added to the culture at a single concentration (10μM) and the cultures were incubated for 48 h. End -point determinations were made with a protein binding dye, SRB. Results for each tested compound was reported as the percent of growth of the treated cells when compared to the untreated control cells. The percentage growth was evaluated spectrophotometrically versus controls not treated with test agents. […]

[6] = tested on: HT29; experiment: as above; conditions: Homo sapiens; for activity at 10 µM: HT-29, 48 h, read-out: Growth Percentage
[7] = tested on: NCI/ADR-RES; experiment: as above; conditions: Homo sapiens; for activity at 10 µM: 48 h, read-out: Growth Percentage
[8] = tested on: UACC-62; experiment: as above; conditions: Homo sapiens; for activity at 10 µM: UACC-62, 48 h, read-out: Growth Percentage
[9] = tested on: OVCAR-5; experiment: as above; conditions: Homo sapiens; for activity at 10 µM: OVCAR-5, 48 h, read-out: Growth Percentage
[10] = tested on: DU-145; experiment: as above; conditions: Homo sapiens; for activity at 10 µM: DU-145, 48 h, read-out: Growth Percentage
[11] = tested on: CCRF-CEM; experiment: NCI-60 anticancer screen (SRB; single dose 10 μM and five doses); conditions: Homo sapiens; for activity at 10 µM: 48 h, read-out: Growth Percentage
[12] = tested on: EKVX; experiment: NCI-60 anticancer screen (SRB; single dose and five doses); conditions: Homo sapiens; for activity at 10 µM: 48 h, read-out: Growth Percentage
[13] = tested on: COLO 205; experiment: as above; conditions: Homo sapiens; for activity at 10 µM: COLO 205, 48 h, read-out: Growth Percentage
[14] = tested on: KM12; experiment: as above; conditions: Homo sapiens; for activity at 10 µM: KM12, 48 h, read-out: Growth Percentage
[15] = tested on: SK-MEL-28; experiment: as above; conditions: Homo sapiens; for activity at 10 µM: SK-MEL-28, 48 h, read-out: Growth Percentage
[16] = tested on: HOP-92; experiment: as above; conditions: Homo sapiens
[17] = tested on: HCT-116; experiment: as above; conditions: Homo sapiens; for activity at 10 µM: HCT-116, 48 h, read-out: Growth Percentage
[18] = tested on: MCF7; experiment: as above; conditions: Homo sapiens; for activity at 10 µM: MCF7, 48 h, read-out: Growth Percentage
[19] = tested on: A498; experiment: as above; conditions: Homo sapiens
[20] = tested on: HL-60(TB); experiment: as above; conditions: Homo sapiens; for activity at 10 µM: HL-60, 48 h, read-out: Growth Percentage
[21] = tested on: MOLT-4; experiment: as above; conditions: Homo sapiens; for activity at 10 µM: MOLT-4, 48 h, read-out: Growth Percentage
[22] = tested on: T-47D; experiment: as above; conditions: Homo sapiens, T47D; for activity at 10 µM: 48 h, read-out: Growth Percentage
[23] = tested on: SK-MEL-5; experiment: as above; conditions: Homo sapiens; for activity at 10 µM: SK-MEL-5, 48 h, read-out: Growth Percentage
[24] = tested on: K-562; experiment: as above; conditions: Homo sapiens; for activity at 10 µM: K562, 48 h, read-out: Growth Percentage
[25] = tested on: LOX IMVI; experiment: as above; conditions: Homo sapiens; for activity at 10 µM: 48 h, read-out: Growth Percentage
[26] = mean over the tested cell lines, dose of 10 μM, read-out: Mean growth percentage
[27] = five doses, mean graph midpoint over all cell lines

## COc1ccc(/C=C/C(=O)c2sc(=S)[nH]c2C)c(OC)c1 [2n, (E)-3-(2,4-Dimethoxyphenyl)-1-(4-Methyl-2-Thioxo-2,3-Dihydrothiazol-5-yl)Prop-2-En-1-One]
[1]
  activity at 10 µM: 84.4%
[2]
  activity at 10 µM: 75.7%
[3]
  activity at 10 µM: 77%
[4]; read-out: growth percentages against most of the tested cells (lowest to highest)
  activity at 10 µM: 19.2 to 123%
[4]; [26]
  activity at 10 µM: 75.1%
[5]; Homo sapiens
  activity at 10 µM: 19.2%
[6]
  activity at 10 µM: 115%
[7]
  activity at 10 µM: 48%
[8]
  activity at 10 µM: 65.2%
[9]
  activity at 10 µM: 120%
[10]
  activity at 10 µM: 86.9%
[11]
  activity at 10 µM: 53.7%
[12]
  activity at 10 µM: 56.2%
[13]
  activity at 10 µM: 123%
[14]
  activity at 10 µM: 73.4%
[15]
  activity at 10 µM: 92.8%
[16]; HOP-92, 48 h, read-out: Growth Percentage
  activity at 10 µM: 103%
[17]
  activity at 10 µM: 62.3%
[18]
  activity at 10 µM: 46%
[19]; A498, 48 h, read-out: Growth Percentage, A498, dose of 10 μM
  activity at 10 µM: 101%
[20]
  activity at 10 µM: 55.8%
[21]
  activity at 10 µM: 72.3%
[22]
  activity at 10 µM: 30.9%
[23]
  activity at 10 µM: 37.8%
[24]
  activity at 10 µM: 48.9%
[25]
  activity at 10 µM: 57.8%

## Cc1[nH]c(=S)sc1C(=O)/C=C/c1cccc([N+](=O)[O-])c1 [2h, (E)-1-(4-Methyl-2-Thioxo-2,3-Dihydrothiazol-5-yl)-3-(3-Nitrophenyl)Prop-2-En-1-One]
[1]; UACC-257
  GI50: 3.39 µM
  IC50: 10 µM
[1]
  activity at 10 µM: 9.4%
[1]; UACC-257, read-out: LC50
  CC50: 38 µM
[1]; UACC-257, read-out: TGI
  IC (TGI): 13.5 µM
[2]; PC-3
  GI50: 4.07 µM
  IC50: 8.13 µM
[2]
  activity at 10 µM: 8.43%
[2]; PC-3, read-out: LC50
  CC50: 56.2 µM
[2]; PC-3, read-out: TGI
  IC (TGI): 17.8 µM
[3]
  GI50: 4.07 µM
  IC50: 6.17 µM
  activity at 10 µM: -58.4%
[3]; read-out: LC50
  CC50: 38.9 µM
[3]; read-out: TGI
  IC (TGI): 14.8 µM
[4]; [26]
  activity at 10 µM: -21.8%
[4]; [27]
  Log10GI50 _MID: -5.37 Molar
  Log10LC50 _MID: -4.34 Molar
  Log10TGI _MID: -4.82 Molar
[5]; Homo sapiens
  activity at 10 µM: -82.9%
[5]; Homo sapiens, MDA-MB-468, MDA-MB-468, Breast Cancer, five dose
  IC50: 7.76 µM
[5]; Homo sapiens, MDA-MB-468, Breast Cancer, five dose
  GI50: 2950 nM
[5]; Homo sapiens, MDA-MB-468, Breast Cancer, five dose, read-out: LC50 (the source's name)
  CC50: 40.7 µM
[5]; MDA-MB-468, Breast Cancer, five dose
  TGI: 10.72 µM
[6]; HT-29
  GI50: 5.5 µM
  IC50: 7.24 µM
[6]
  activity at 10 µM: 20.4%
[6]; HT-29, read-out: LC50
  CC50: 60.3 µM
[6]; HT-29, read-out: TGI
  IC (TGI): 19.9 µM
[7]
  GI50: 2510 nM
  IC50: 4.27 µM
  activity at 10 µM: 8.19%
[7]; read-out: LC50
  CC50: > 100 µM
[7]; read-out: TGI
  IC (TGI): 5.75 µM
[8]; UACC-62
  GI50: 3.55 µM
  IC50: 7.94 µM
[8]
  activity at 10 µM: -56.7%
[8]; UACC-62, read-out: LC50
  CC50: 41.7 µM
[8]; UACC-62, read-out: TGI
  IC (TGI): 15.8 µM
[9]; OVCAR-5
  GI50: 3.63 µM
  IC50: 9.12 µM
[9]
  activity at 10 µM: -37.4%
[9]; OVCAR-5, read-out: LC50
  CC50: 38.9 µM
[9]; OVCAR-5, read-out: TGI
  IC (TGI): 13.8 µM
[10]; DU-145
  GI50: 2400 nM
  IC50: 3.89 µM
[10]
  activity at 10 µM: 8.55%
[10]; DU-145, read-out: LC50
  CC50: 23.4 µM
[10]; DU-145, read-out: TGI
  IC (TGI): 6.17 µM
[11]
  GI50: 2140 nM
  activity at 10 µM: 13.8%
[11]; five-dose, Leukemia CCRF-CEM
  IC50: 3.39 µM
[11]; read-out: LC50
  CC50: > 100 µM
[11]; read-out: TGI
  IC (TGI): 6.61 µM
[12]
  GI50: 5.75 µM
  IC50: 15.1 µM
  activity at 10 µM: 0.65%
[12]; read-out: LC50
  CC50: 46.8 µM
[12]; read-out: TGI
  IC (TGI): 19.5 µM
[13]; COLO 205
  GI50: 5.75 µM
  IC50: 8.71 µM
[13]
  activity at 10 µM: -24.9%
[13]; COLO 205, read-out: LC50
  CC50: 51.3 µM
[13]; COLO 205, read-out: TGI
  IC (TGI): 19.1 µM
[14]; KM12
  GI50: 3.63 µM
  IC50: 5.37 µM
[14]
  activity at 10 µM: -78.4%
[14]; KM12, read-out: LC50
  CC50: 42.7 µM
[14]; KM12, read-out: TGI
  IC (TGI): 13.2 µM
[15]; SK-MEL-28
  GI50: 5.5 µM
  IC50: 13.2 µM
[15]
  activity at 10 µM: -47%
[15]; SK-MEL-28, read-out: LC50
  CC50: 44.7 µM
[15]; SK-MEL-28, read-out: TGI
  IC (TGI): 18.2 µM
[16]; HOP-92
  GI50: 3.89 µM
  IC50: 22.4 µM
[16]; HOP-92, read-out: LC50
  CC50: 44.7 µM
[16]; HOP-92, read-out: TGI
  IC (TGI): 16.6 µM
[17]; HCT-116
  GI50: 2880 nM
  IC50: 3.31 µM
[17]
  activity at 10 µM: -6.25%
[17]; HCT-116, read-out: LC50
  CC50: > 100 µM
[17]; HCT-116, read-out: TGI
  IC (TGI): > 100 µM
[18]; MCF7
  GI50: 2750 nM
  IC50: 6.31 µM
[18]
  activity at 10 µM: -45.4%
[18]; MCF7, read-out: LC50
  CC50: 38 µM
[18]; MCF7, read-out: TGI
  IC (TGI): 9.77 µM
[19]; A498
  GI50: 14.8 µM
  IC50: 29.5 µM
[19]; A498, read-out: LC50
  CC50: 55 µM
[19]; A498, read-out: TGI
  IC (TGI): 28.2 µM
[20]; HL-60
  GI50: 1950 nM
  IC50: 3.31 µM
[20]
  activity at 10 µM: 5.25%
[20]; HL-60, read-out: LC50
  CC50: > 100 µM
[20]; HL-60, read-out: TGI
  IC (TGI): 5.75 µM
[21]; MOLT-4
  GI50: 3.47 µM
  IC50: 5.01 µM
[21]
  activity at 10 µM: 13.3%
[21]; MOLT-4, read-out: LC50
  CC50: > 100 µM
[21]; MOLT-4, read-out: TGI
  IC (TGI): 30.2 µM
[22]
  GI50: 2000 nM
  IC50: 4.9 µM
  activity at 10 µM: -56.6%
[22]; read-out: LC50
  CC50: 66.1 µM
[22]; read-out: TGI
  IC (TGI): 7.08 µM
[23]; SK-MEL-5
  GI50: 13.2 µM
  IC50: 22.9 µM
[23]
  activity at 10 µM: -68.8%
[23]; SK-MEL-5, read-out: LC50
  CC50: 51.3 µM
[23]; SK-MEL-5, read-out: TGI
  IC (TGI): 26.3 µM
[24]; K562
  GI50: 3.09 µM
  IC50: 3.72 µM
[24]
  activity at 10 µM: 13.8%
[24]; K562, read-out: LC50
  CC50: > 100 µM
[24]; K562, read-out: TGI
  IC (TGI): > 100 µM
[25]
  GI50: 1580 nM
  IC50: 2750 nM
  activity at 10 µM: -99%
[25]; read-out: LC50
  CC50: 6.03 µM
[25]; read-out: TGI
  IC (TGI): 3.09 µM

Reference: publication PMC11435058, “Synthesis of New Thiazole-Privileged Chalcones as Tubulin Polymerization Inhibitors with Potential Anticancer Activities” (Pharmaceuticals, 2024)
